Test results taken from PubChem BioAssay (NCI).
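Where inhibition never reached the appropriate level, the endpoint shown equals the highest concentration tested. Otherwise, values were interpolated linearly from a five-concentration, 48-hour dose response in 96-well plates. GI50 is the concentration that inhibits growth by half. At the TGI there is no net growth.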

Experiments:
Assay in all cases: NCI anticancer screen, dose series, 48 h
[1] = tested on: SNB-78 CNS
[2] = tested on: U251 CNS
[3] = tested on: COLO 205 colon
[4] = tested on: HCT-15 colon
[5] = tested on: HCC-2998 colon
[6] = tested on: CAKI-1 renal
[7] = tested on: M19-MEL melanoma
[8] = tested on: A498 renal
[9] = tested on: LOX IMVI melanoma
[10] = tested on: SR leukemia

| SMILES | GI50 [1] [µM] | TGI [1] [µM] | GI50 [2] [µM] | TGI [2] [µM] | GI50 [3] [µM] | TGI [3] [µM] | GI50 [4] [µM] | TGI [4] [µM] | GI50 [5] [µM] | TGI [5] [µM] | GI50 [6] [µM] | TGI [6] [µM] | GI50 [7] [µM] | TGI [7] [µM] | GI50 [8] [µM] | TGI [8] [µM] | GI50 [9] [µM] | TGI [9] [µM] | TGI [10] [µM] | GI50 [10] [µM] |
| --- | --- | --- | --- | --- | --- | --- | --- | --- | --- | --- | --- | --- | --- | --- | --- | --- | --- | --- | --- | --- |
| O=C([O-])CC(=O)[O-].[NH-][C@@H]1CCCC[C@H]1[NH-].[Pt+4] | > 100 | > 100 | 17.4 | > 83.3 | 54 | > 100 | 9.61 | > 100 | 18.9 | > 100 | 3.53 | > 100 | 14.3 | > 100 | 20.7 | > 81.5 | 15 | > 100 |  |  |
| COc1cc2cnc3c4cc(OCc5ccccc5)ccc4ccc3c2cc1OC |  | 65.4 |  | > 100 |  | 74.9 |  | > 100 |  | > 100 |  | > 100 |  | > 100 |  |  |  | > 100 | 27.1 |  |
| CNC(=O)CN(CC(=O)O)C(=O)NC |  | > 100 |  | > 100 |  | > 100 |  | > 100 |  | > 100 |  | > 100 |  | > 100 |  | > 100 |  | > 100 | > 100 |  |
| CCC(CO)Nc1nc2c(c(=O)n(C)c(=O)n2C)n1CCO (stereo not drawn) |  | 53.5 |  | > 100 |  | > 100 |  | > 100 |  | > 100 |  |  |  | > 100 |  |  |  |  | > 100 |  |
| C=C1C(OC(C)=O)CC(OC(C)=O)C2(C)C(OC(C)=O)C(OC(C)=O)C3=C(C)C(OC(=O)/C=C/c4ccccc4)CC(C(OC(C)=O)C12)C3(C)C (stereo not drawn) |  | > 100 |  | > 100 |  | > 100 |  | > 100 |  | > 100 |  | > 100 |  | > 100 |  | > 100 |  | > 100 | > 100 |  |
| COc1ccc2c(c1)CN1CCc3c(cc(OC)c(OC)c3OC)C1C2 (stereo not drawn) |  | > 100 |  | > 100 |  | > 100 |  | > 100 |  | > 100 |  | > 100 |  | > 100 |  |  |  |  | > 100 |  |
| COc1ccc(OC(C)C(=O)O)c2c(=O)ccccc12 (stereo not drawn) |  | > 100 |  | > 100 |  | > 100 |  | > 100 |  | > 100 |  |  |  | > 100 |  | > 100 |  | > 100 | > 100 |  |
| CC[PH+](CC)CC.[Cl][Au] | 1.65 | 5.93 | 1.95 | 5.14 | 1.85 | 5.79 | 1.31 | 3.17 | 6.78 | 12 | 1.18 | 2.64 | 1.08 | 6.56 |  |  | 1.4 | 2.91 |  |  |
| CCC[CH2][Sn]1([CH2]CCC)[S]CC[N]1S(=O)(=O)c1ccc(C)cc1 |  |  | 0.885 | 2.1 | 1.63 | 3.09 | 1.51 | 2.93 | 1.95 | 3.44 | 0.675 | 1.96 | 1.32 | 3.03 |  |  |  |  |  |  |
| CCCCN(CCCC)CC(C(C)=O)C(c1ccccc1)c1c(O)c2ccccc2oc1=O (stereo not drawn) |  | > 100 |  | > 100 |  | > 100 |  | > 100 |  | > 100 |  | > 100 |  | > 100 |  |  |  | > 100 | > 100 |  |
| CC(=O)NN1C(=O)C(Cc2ccccc2)c2ccccc21 (stereo not drawn) |  | > 100 |  | > 100 |  | > 100 |  | > 100 |  | > 100 |  | > 100 |  | > 100 |  | > 100 |  | > 100 |  |  |
| COc1cc(C(=O)c2cocc2C(=O)c2ccc3c(c2)OCO3)cc(OC)c1OC |  |  |  | 8.35 |  | 26.5 |  | 35.3 |  | 16.9 |  | 35.7 |  | > 100 |  | 26.2 |  | 30 | > 56.2 |  |
| C=C1CCC2C3(C)COC(c4ccccc4Cl)OC3CCC2(C)C1/C=C/C1=CCOC1=O (stereo not drawn) |  |  | 24 | > 100 | 17.9 | > 100 | 6.6 | > 100 | 21.1 | > 100 | 4.08 | > 100 |  |  | > 100 | > 100 | 6.77 | > 100 | > 100 | 3.97 |
| N#Cc1cccc(C2C3=C(COC3=O)N(CCO)c3cc4c(cc32)OCO4)c1 (stereo not drawn) |  |  | 2.3 | > 50 | 1.58 | > 50 | 0.971 | > 50 | 4.6 | > 50 | 1.32 | > 50 |  |  | 1.2 | 4.14 | 2.42 | > 50 | > 50 | 0.313 |
| COc1cc(CNc2oc(-c3ccccc3)c(-c3ccccc3)c2C#N)cc(CN2CCN(C)CC2)c1O |  |  | 1.76 | 3.58 | 1.98 | 4.05 | 1.32 | 2.77 | 1.79 | 3.36 | 1.68 | 3.17 |  |  | 1.55 | 3.48 | 1.67 | 3.18 | 4.46 | 1.6 |
| CC(=O)[CH-]C(=O)c1ccccc1.CC(=O)[CH-]C(=O)c1ccccc1.[O-]c1ccc2c(c1)OCO2.[O-]c1ccc2c(c1)OCO2.[Ti+4] |  |  | 22.2 | > 100 | 32 | > 100 | 34.4 | > 100 | 24.6 | 61.6 | 29.5 | > 100 | 21.9 | 54.5 | 32.7 | 64.8 | 18.2 | 55 |  |  |
| Nc1ccc(/C=C/c2ccc3cccnc3c2)cc1 |  |  |  | > 100 |  | > 100 |  | > 100 |  | > 100 |  | > 100 |  |  |  | > 100 |  | > 100 | > 100 |  |
| CC/C(=C/c1ccc(OC)cc1OC)[N+](=O)[O-] |  |  | 4.93 | 16.2 | 2.04 | 4.24 | 1.87 | 4.54 | 4.32 | 15.8 | 2.24 | 6.55 |  |  | 2.75 | 10.2 | 1.31 | 2.9 | 17 | 2.61 |
| COC(=O)C1CCc2nnc(-c3ccccc3)n21 (stereo not drawn) |  | > 100 |  | > 100 |  | > 100 |  | > 100 |  | > 100 |  | > 100 |  | > 100 |  | > 100 |  | > 100 |  |  |
